Experimental data from DBAASP.
Converted amounts (≈) assume the structure as drawn. One block for each molecule: values may come before it.

Assays:
Test in all cases: ≥ marks a high value that may be exact or a test limit, other limits are often not marked, values filed in µg/mL are converted to µM
[1] = test system: Staphylococcus aureus ATCC 6538P
Pseudomonas aeruginosa = test system: Pseudomonas aeruginosa
Staphylococcus aureus = test system: Staphylococcus aureus
Escherichia coli JM109 = test system: Escherichia coli JM109
[2] = test system: Bacillus anthracis Sterne 34F2
Escherichia coli U16318 = test system: Escherichia coli U16318
[3] = test system: Staphylococcus aureus B38302
[4] = test system: Bacillus subtilis var. niger ATCC 9372
Escherichia coli K91BK = test system: Escherichia coli K91BK
Salmonella typhimurium = test system: Salmonella typhimurium
[5] = test system: Staphylococcus aureus IAM 1011
[6] = test system: Bacillus subtilis IAM 1026
[7] = test system: Vibrio parahaemolyticus Vp+1
[8] = test system: Escherichia coli JCM 1649
[9] = test system: Aeromonas salmonicida NCIMB 1102
[10] = test system: Shewanella putrefaciens IAM 1509
[11] = test system: Photobacterium damselae subsp. piscicida Sp 9587
[12] = test system: Vibrio anguillarum NCIMB 829
[13] = test system: Staphylococcus aureus FDA 209P
[14] = test system: Escherichia coli ATCC 25922
[15] = test system: Acholeplasma laidlawii A-EF22
[16] = test system: Streptococcus sanguinis NY101
[17] = test system: Pseudomonas aeruginosa PAK
[18] = test system: Streptococcus mutans UA159
[19] = test system: Streptococcus gordonii Challis DL1
[20] = test system: Streptococcus mitis ATCC 903

MIC [1]: 1.85 µM (≈ 2 µg/mL)
MIC (Pseudomonas aeruginosa): 2.77 µM (≈ 3 µg/mL)
MIC (Staphylococcus aureus): 29.6 µM (≈ 32 µg/mL)
MIC (Escherichia coli JM109): 1.85 µM (≈ 2 µg/mL)
SMILES: CC[C@H](C)[C@H](NC(=O)[C@H](C)NC(=O)[C@H](CC(C)C)NC(=O)[C@H](CC(C)C)NC(=O)[C@H](CC(C)C)NC(=O)[C@H](C)N)C(=O)N[C@@H](CCCN=C(N)N)C(=O)N[C@@H](CCCN=C(N)N)C(=O)N[C@@H](CCCN=C(N)N)C(N)=O [ALLLAIRRR]

SMILES: CC(=O)N[C@@H](C)C(=O)N[C@@H](CC(C)C)C(=O)N[C@@H](Cc1c[nH]c2ccccc12)C(=O)N[C@@H](CCCCN)C(=O)N[C@H](C(=O)N[C@@H](CC(C)C)C(=O)N[C@@H](CC(C)C)C(=O)N[C@@H](CCCCN)C(=O)N[C@@H](CCCCN)C(=O)N[C@H](C(=O)N[C@@H](CC(C)C)C(=O)N[C@@H](CCCCN)C(=O)N[C@@H](C)C(N)=O)C(C)C)[C@@H](C)O [ALWKTLLKKVLKA]
MIC [2]: ≥ 70.7 µM
MIC (Escherichia coli U16318): 25 µM (≈ 38.8 µg/mL)
MIC [3]: 25 µM (≈ 38.8 µg/mL)
MIC [4]: 4.42 µM (≈ 6.86 µg/mL)
MIC (Escherichia coli K91BK): ≥ 100 µM

MIC (Salmonella typhimurium): ≥ 33.7 µM
MIC [5]: 2.11 µM (≈ 3.13 µg/mL)
MIC [6]: 4.21 µM (≈ 6.25 µg/mL)
MIC [8]: ≥ 33.7 µM
MIC [9]: ≥ 33.7 µM
MIC [10]: 4.21 µM (≈ 6.25 µg/mL)
MIC [11]: 8.43 µM (≈ 12.5 µg/mL)
MIC [12]: 8.43 µM (≈ 12.5 µg/mL)
SMILES: CC[C@H](C)[C@H](NC(=O)CNC(=O)CNC(=O)[C@@H](NC(=O)[C@@H](N)Cc1ccccc1)[C@@H](C)CC)C(=O)N[C@H](C(=O)N[C@@H](CO)C(=O)N[C@@H](Cc1ccccc1)C(=O)N[C@H](C(=O)N[C@@H](CCCCN)C(=O)N[C@@H](CCCCN)C(=O)N[C@@H](CC(C)C)C(=O)N[C@@H](Cc1ccccc1)C(=O)O)[C@@H](C)CC)[C@@H](C)CC [FIGGIISFIKKLF]
MIC [7]: 16.9 µM (≈ 25 µg/mL)

MIC [13]: 4.9 µM (≈ 23.3 µg/mL)
MIC [14]: 3.2 µM (≈ 15.2 µg/mL)
SMILES: CC[C@H](C)[C@H](NC(=O)CNC(=O)[C@H](CCCCN)NC(=O)[C@@H](NC(=O)CNC(=O)[C@H](CCCCN)NC(=O)[C@@H](NC(=O)[C@@H](NC(=O)[C@H](CC(C)C)NC(=O)[C@H](CC(=O)O)NC(=O)[C@H](CCCCN)NC(=O)[C@@H](NC(=O)CNC(=O)[C@H](CCCCN)NC(=O)CNC(=O)[C@H](C)NC(=O)[C@H](Cc1ccccc1)NC(=O)[C@H](CCCCN)NC(=O)[C@H](CO)NC(=O)[C@H](Cc1ccccc1)NC(=O)[C@@H](NC(=O)CN)[C@@H](C)CC)[C@@H](C)CC)[C@@H](C)CC)[C@@H](C)CC)C(C)C)C(=O)N[C@@H](C)C(=O)N[C@@H](CCCCN)C(=O)N[C@@H](CCC(=O)O)C(=O)N[C@@H](C)C(=O)NCC(=O)N[C@@H](CCSC)C(=O)N[C@@H](CC(=O)O)C(=O)N[C@H](C(=O)N[C@H](C(=O)N[C@@H](CCCN=C(N)N)C(=O)N[C@H](C(=O)NCC(=O)N[C@H](C(=O)N[C@@H](CC(=O)O)C(=O)N[C@H](C(=O)N[C@@H](C)C(=O)NCC(=O)N[C@H]1CSSC[C@@H](C(=O)O)NC(=O)[C@H](CCC(=O)O)NC(=O)CNC(=O)[C@H](CCCCN)NC(=O)[C@H]([C@@H](C)CC)NC(=O)[C@H](CCCCN)NC1=O)[C@@H](C)CC)[C@@H](C)CC)[C@@H](C)O)[C@@H](C)CC)C(C)C [GIFSKFAGKGIKDLIIKGVKGIAKEAGMDVIRTGIDIAGCKIKGEC]

MIC [13]: 3 µM (≈ 14.3 µg/mL)
MIC [14]: 1.7 µM (≈ 8.13 µg/mL)
SMILES: CC[C@H](C)[C@H](NC(=O)CNC(=O)[C@H](CCCCN)NC(=O)[C@@H](NC(=O)CNC(=O)[C@H](CCCCN)NC(=O)[C@@H](NC(=O)[C@@H](NC(=O)[C@H](CCSC)NC(=O)[C@H](CC(N)=O)NC(=O)[C@H](CCCCN)NC(=O)[C@@H](NC(=O)CNC(=O)[C@H](CCCCN)NC(=O)CNC(=O)[C@H](C)NC(=O)[C@H](Cc1ccccc1)NC(=O)[C@H](CCCCN)NC(=O)[C@H](CO)NC(=O)[C@H](Cc1ccccc1)NC(=O)[C@H](CC(C)C)NC(=O)CN)[C@@H](C)CC)[C@@H](C)CC)[C@@H](C)CC)[C@@H](C)CC)C(=O)NCC(=O)N[C@@H](CCCCN)C(=O)N[C@@H](CCC(=O)O)C(=O)N[C@H](C(=O)NCC(=O)N[C@@H](CCSC)C(=O)N[C@@H](CC(=O)O)C(=O)N[C@H](C(=O)N[C@H](C(=O)N[C@@H](CCCN=C(N)N)C(=O)N[C@H](C(=O)NCC(=O)N[C@H](C(=O)N[C@@H](CC(=O)O)C(=O)N[C@H](C(=O)N[C@@H](C)C(=O)NCC(=O)N[C@H]1CSSC[C@@H](C(=O)O)NC(=O)[C@H](CCC(=O)O)NC(=O)CNC(=O)[C@H](CCCCN)NC(=O)[C@H]([C@@H](C)CC)NC(=O)[C@H](CCCCN)NC1=O)C(C)C)[C@@H](C)CC)[C@@H](C)O)[C@@H](C)CC)C(C)C)C(C)C [GLFSKFAGKGIKNMIIKGIKGIGKEVGMDVIRTGIDVAGCKIKGEC]

MIC [15]: ≥ 100 µM
SMILES: CC(C)C[C@H](NC(=O)[C@H](CC(C)C)NC(=O)[C@H](CCCCN)NC(=O)[C@H](CC(C)C)NC(=O)[C@H](CC(C)C)NC(=O)[C@H](CC(C)C)NC(=O)[C@@H](N)CCCCN)C(=O)N[C@@H](CCCCN)C(=O)O [KLLLKLLK]

MIC [1]: 7.67 µM (≈ 9.99 µg/mL)
MIC (Staphylococcus aureus): 49.1 µM (≈ 64 µg/mL)
MIC (Escherichia coli JM109): ≥ 36.8 µM
SMILES: CC[C@H](C)[C@H](NC(=O)[C@H](C)NC(=O)[C@H](CC(C)C)NC(=O)[C@H](CC(C)C)NC(=O)[C@H](Cc1cnc[nH]1)NC(=O)[C@H](C)NC(=O)[C@H](C)NC(=O)[C@H](CC(C)C)NC(=O)[C@@H](N)CC(C)C)C(=O)NCC(=O)N[C@@H](CCCN=C(N)N)C(=O)N[C@@H](CCCN=C(N)N)C(N)=O [LLAAHLLAIGRR]

MIC [16]: 9.6 µM (≈ 32 µg/mL)
MIC [17]: 9.6 µM (≈ 32 µg/mL)
MIC [18]: 2.4 µM (≈ 8 µg/mL)
MIC [19]: 4.8 µM (≈ 16 µg/mL)
MIC (Staphylococcus aureus): 9.6 µM (≈ 32 µg/mL)
MIC [20]: 9.6 µM (≈ 32 µg/mL)
SMILES: CC[C@H](C)[C@H](NC(=O)[C@H](Cc1ccccc1)NC(=O)CNC(=O)CNC(=O)[C@H](CO)NC(=O)[C@H](Cc1cnc[nH]1)NC(=O)[C@H](CC(C)C)NC(=O)[C@H](CC(C)C)NC(=O)[C@H](Cc1cnc[nH]1)NC(=O)[C@H](Cc1cnc[nH]1)NC(=O)[C@H](CC(C)C)NC(=O)[C@H](CCCCN)NC(=O)[C@H](CCCCN)NC(=O)[C@H](CC(C)C)NC(=O)[C@H](CC(C)C)NC(=O)[C@H](CCCN=C(N)N)NC(=O)[C@H](CCCN=C(N)N)NC(=O)[C@H](Cc1c[nH]c2ccccc12)NC(=O)[C@@H](N)CCCN=C(N)N)C(=O)N[C@@H](CCCCN)C(=O)N[C@@H](Cc1cnc[nH]1)C(=O)N[C@@H](Cc1ccccc1)C(=O)N[C@H](C(=O)N[C@@H](Cc1cnc[nH]1)C(=O)N[C@@H](CCCN=C(N)N)C(=O)N[C@@H](Cc1ccccc1)C(N)=O)[C@@H](C)CC [RWRRLLKKLHHLLHSGGFIKHFIHRF]

MIC [16]: 12.4 µM (≈ 32 µg/mL)
MIC [17]: 24.1 µM (≈ 62.5 µg/mL)
MIC [18]: 3.09 µM (≈ 8 µg/mL)
MIC [19]: 12.4 µM (≈ 32 µg/mL)
MIC (Staphylococcus aureus): 12.4 µM (≈ 32 µg/mL)
MIC [20]: 12.4 µM (≈ 32 µg/mL)
SMILES: CC[C@H](C)[C@H](NC(=O)[C@H](Cc1ccccc1)NC(=O)CNC(=O)CNC(=O)CNC(=O)[C@H](Cc1ccccc1)NC(=O)[C@H](Cc1c[nH]c2ccccc12)NC(=O)[C@H](CCCN=C(N)N)NC(=O)[C@H](Cc1c[nH]c2ccccc12)NC(=O)[C@H](CCCN=C(N)N)NC(=O)[C@H](Cc1c[nH]c2ccccc12)NC(=O)[C@@H](N)CCCN=C(N)N)C(=O)N[C@@H](CCCCN)C(=O)N[C@@H](Cc1cnc[nH]1)C(=O)N[C@@H](Cc1ccccc1)C(=O)N[C@H](C(=O)N[C@@H](Cc1cnc[nH]1)C(=O)N[C@@H](CCCN=C(N)N)C(=O)N[C@@H](Cc1ccccc1)C(N)=O)[C@@H](C)CC [RWRWRWFGGGFIKHFIHRF]
